The values below come from article PMC7862272, “Discovery of an ene-reductase for initiating flavone and flavonol catabolism in gut bacteria” (Nature Communications, 2021).

The target of data set [1] is T1, FLR (flavone reductase) (Flavonifractor plautii, UniProt A0A096D7X8).
T1 construct: gene HMPREF9460_03474; SeMet-labelled for crystals
In words: X-ray crystal structure, soaked SeMet crystal. The settings on record: FMN bound, dimer interface. The data set is classed as binding.

A further data set addresses T2, sgrIFR (Streptomyces griseus, UniProt B1W160).
T2 construct: gene SGR_2256; expressed in E. coli BL21 from pET28a, activity of the cell culture
T2 sequence (B1W160 1-332): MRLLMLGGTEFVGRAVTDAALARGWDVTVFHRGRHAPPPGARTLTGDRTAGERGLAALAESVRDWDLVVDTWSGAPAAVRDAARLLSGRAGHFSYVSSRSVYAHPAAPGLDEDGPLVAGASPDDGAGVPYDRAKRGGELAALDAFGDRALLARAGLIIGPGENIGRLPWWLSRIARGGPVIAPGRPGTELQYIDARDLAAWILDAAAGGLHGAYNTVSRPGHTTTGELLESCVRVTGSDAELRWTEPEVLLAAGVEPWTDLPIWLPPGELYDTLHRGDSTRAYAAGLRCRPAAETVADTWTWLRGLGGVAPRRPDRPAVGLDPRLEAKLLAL
In words: conversion by E. coli expressing the enzyme. The data set is classed as cell-based. The settings on record: product dihydrodaidzein.

Data set [2] has as its target T1, FLR (flavone reductase). In words: X-ray crystal structure (Se-SAD). The data set is classed as binding. As to conditions: co-purified FMN at dimer interface.
Data set [3] deals with flavone reductase (FLR) from Flavonifractor plautii ATCC 49531 (Flavonifractor plautii ATCC 49531). In words: SEC-MALS; Superdex-200 10/300; 100 mM NaCl, 20 mM Tris-HCl pH 7.9, 3 mM FMN, 3 mM DTT; 100 uL of FLR at ~5 mg/mL injected; room temperature. In general terms: In gel filtration, larger molecules generally elute earlier.
Substrate in data set [4]: O=C1C[C@@H](c2ccc(O)cc2)Oc2cc(O)cc(O)c21
In words: HPLC, steady-state kinetics, reverse reaction. Format: biochemical, Flavonifractor plautii. As to conditions: pH 7.0, 37 °C, 0.5 mM FMN, 5% DMSO, reverse reaction (dehydrogenation to apigenin). The source says:
HPLC, steady-state kinetics, reverse reaction on FLR (flavone reductase) | The determination of the Km and kcat values of FLR for naringenin

Substrate in the data set “purified protein”: O=c1cc(-c2ccc(O)cc2)oc2cc(O)cc(O)c12
In words: purified protein. The settings on record: pH 7.0, 37 °C, 5 mM NADH, 0.5 mM FMN, 5 μM Fre, 5% DMSO, anaerobic.

For orientation: stoichiometry N means the number of molecules, sites or subunits per partner or assembly. As usually defined, the Km is the substrate concentration at which the rate is half of its maximum. For orientation: kcat means the number of substrate molecules converted per active site and unit of time at saturation.

Regarding `O=c1cc(-c2ccc(O)cc2)oc2cc(O)cc(O)c12` [apigenin], the “X-ray crystal structure, soaked SeMet crystal” value at FLR (flavone reductase) [1] (2.55 Å) was “solved the complex structures of FLR with various substrates, including apigenin, chrysin, and luteolin”.
As to `O=c1cc(-c2ccc(O)c(O)c2)oc2cc(O)cc(O)c12` [luteolin], at FLR (flavone reductase) [1] (2.25 Å), the “X-ray crystal structure, soaked SeMet crystal” value was “solved the complex structures of FLR with various substrates, including apigenin, chrysin, and luteolin”.
For the molecule `O=c1c(-c2ccc(O)cc2)coc2cc(O)ccc12` [daidzein], on sgrIFR, the “conversion by E. coli expressing the enzyme” value was “they could convert daidzein (a main isoflavone) to dihydrodaidzein”.
As for `Cc1cc2nc3c(=O)[nH]c(=O)nc-3n(C[C@H](O)[C@H](O)[C@H](O)COP(=O)(O)O)c2cc1C` [FMN], at FLR (flavone reductase) [2], the “X-ray crystal structure (Se-SAD)” value is on record as “The cofactor molecule FMN binds at the dimer interface”.
Regarding “flavone reductase (FLR) from Flavonifractor plautii ATCC 49531 (enzyme)”, in data set [3], the stoichiometry N was 2.
On to `O=c1cc(-c2ccccc2)oc2cc(O)cc(O)c12` [chrysin], for which the “X-ray crystal structure, soaked SeMet crystal” value at FLR (flavone reductase) [1] (2.65 Å) is “solved the complex structures of FLR with various substrates, including apigenin, chrysin, and luteolin”.

B1: FLR (flavone reductase) (Flavonifractor plautii 1_3_50AFAA) (protein)
chain: MKILGISGGMRNGSNDGMCIEALMGAKEMGAEVEFIQLQNLHIEHCTGCTACVQSVLGGRGGKCVLKDDFDWLLDKMLDADGIVFSTPIFEKGATGLFHTITDRFGPRMDRGNNIIGTKIAEETGGTAPDPRILKDKVISFMSVGGSDWVTRTQCDAGMLALTPMWKVIDNEVFPWALSILVEDERVARAHQIGRNIAEAAKNIEHAQYQGDAGVCPHCHSRNFHLQDGKAICCLCGLEGEIHNESGKYSFTFPAEQLEHAHDTLSGKFIHGNDIKENTGKKIANMQTEKYKARQAAYRAFITATVPEKG
notes: SeMet-labelled for crystals
Consider B1, for which, in data set [4], the Km stood at 12.27 ± 1.46 µM and the kcat came to 0.0577 ± 0.0025 s⁻¹. In “purified protein”, the Km is 8.36 ± 1.34 µM and the kcat stood at 0.0165 ± 0.0009 s⁻¹.
